Measured values as given in US6469052B2, “Compounds for the photodecontamination of pathogens in blood” (Cerus Corporation, priority 1993, dated 2002).
Read-outs that look alike come from different tables or passages of the source.

What was measured:
[1] = tested on: Chinese hamster ovary (CHO) cells; assay: In vitro genotoxicity screen in CHO cells; format: cell-based; settings: approximately 3 hours exposure in the dark, dilutions 1-1000 μg/ml
From the text: The positive control was methylmethane sulfonate.
Coverslips were mounted with Permount.

[2] = tested on: Salmonella typhimurium TA1538; assay: Ames assay (dark mutagenicity), strain TA1538
From the text: (§1) The second property that is important in testing a compound for use in methods of the present invention is mutagenicity. The most widely used mutagen/carcinogen screening assay is the Ames test. This assay is described by D. M. Maron and B. N. Ames in Mutation Research 113: 173 ( 1983) and a specific screen is described in detail in Example 17, below. The Ames test utilizes several unique strains of Salmonella typhimurium that are histidine- dependent for growth and that lack the usual DNA repair enzymes. The frequency of normal mutations that render the bacteria independent of histidine (i.e., the frequency of spontaneous revertants) is low. The test allows one to evaluate the impact of a compound on this revertant frequency.
(§2) In this example the compounds of the present invention are tested for their dark mutagenicity using an Ames assay. The procedures used for the Salmonella mutagenicity test as described in detail by Maron and Ames were followed exactly. Maron, D. M. and B. N. Ames, Mutation Research 113: 173 ( 1983). A brief description for each procedure is given here. The tester strains TA97a, TA98, TA100, TA102, TA1537 and TA1538 were obtained from Dr. Ames. TA97a, TA98, TA1537 and TA1538 are frameshift tester strains. TA100 and TA102 are base-substitution tester strains. Upon receipt each strain was cultured under a variety of conditions to confirm the genotypes specific to the strains.
(§3) The first tests done with the strains were to determine the range of spontaneous reversion for each of the strains. With each mutagenicity experiment the spontaneous reversion of the tester strains to histidine independence was measured and expressed as the number of spontaneous revertants per plate. This served as the background controls.
(§4) For all experiments, the pre-incubation procedure was used. In this procedure one vial of each tester strain was thawed and 20 μL of this culture was added to 6 mL of Oxoid Nutrient Broth #2. This solution was allowed to shake for 10 hours at 37° C. In the pre-incubation procedure, 0.1 mL of this overnight culture was added to each of the required number of sterile test tubes. To half of the tubes 0.5 mL of a 10% S-9 solution containing Aroclor 1254 induced rat liver extract (Molecular Toxicology Inc., Annapolis, Md.), and MgCl2, KCl, glucose-6-phosphate, NADP, and sodium phosphate buffer (Sigma, St. Louis, Mo.) were added. To the other half of the tubes 0.5 mL of 0.2M sodium phospate buffer, pH 7.4, was used in place of the S-9 mixture (the -S9 samples). Finally 0.1 mL of the test solution containing either 0, 0.1, 0.5, 1, 5, 10, 50, 100, 250, or 500 μg/mL of the test compound was added. The 0.7 mL mixture was vortexed and then pre-incubated while shaking for 20 minutes at 37° C. After shaking, 2 mL of molten top agar supplemented with histidine and biotin were added to the 0.7 mL mixture and immediately poured onto a minimal glucose agar plate (volume of base agar was 20 mL). The top agar was allowed 30 minutes to solidify and then the plates were inverted and incubated for 44 hours at 37° C. After incubation the number of revertant colonies on each plate were counted. […] (“n” represents the number of replicates performed for each data point.)
(§5) Maron and Ames (1983) describe the conflicting views with regard to the statisical treatment of data generated from the test.

[3] = tested on: Salmonella typhimurium TA100
From the text: as §1, §2, §3, §4, §5

R17 = R17 bacteriophage inactivation assay (r-17 screen); format: cell-based, bacteriophage R17 (grown in Hfr 3000 bacteria)
Method: An r-17 bacteriophage assay was used in this example to predict pathogen inactivation efficiency and to determine nucleic acid binding of the photoreactive binding compounds of the present invention. In the r-17 assay, the bacteriophage was placed in a solution with each compound tested and was then irradiated. The ability of the phage to subsequently infect bacteria and inhibit their growth was measured. The bacteriophage was selected for its relatively accessible nucleic acid such that the culture growth inhibition would accurately reflect nucleic acid damage by the test compounds. The bacteriophage assay for nucleic acid binding to test compounds offers a safe and inexpensive procedure to identify compounds likely to display efficient pathogen inactivation.
The R17 was grown up in Hfr 3000 bacteria, approximate titer 5 ×10^11. (R17 and Hfr 3000 were obtained from American Tissue Culture Collection (ATCC), Washington, D.C.) The R17 phage stock was added to a solution of 15% fetal bovine serum in Dulbecco's Modified Eagles Medium (DMEM) to a final phage concentration of 10^9/mL. An aliquot (0.5 mL) was transferred to a 1.5 mL snap-top polyethylene tube. An aliquot (0.004-0.040 mL) of the test compound stock solution prepared in water, ethanol or dimethylsulfoxide at 0.80-8.0 mM was added to the tube. Compounds were tested at concentrations between 4 μM and 320 μM. […] The tubes were placed in a light device as described in EXAMPLE 1 and irradiated for between 1 and 10 minutes. Sterile 13 mL dilution tubes were prepared; each test compound required one tube with 0.4 mL of Luria broth (LB) and five tubes containing 0.5 mL of LB broth. To make the dilutions, a 0.100 mL aliquot of the irradiated solution of phage and test compound was added to the first dilution tube of 0.4 mL of media then 0.020 mL of this solution was added to the second tube of 0.5 mL medium (1:25). The second solution was then diluted serially (1:25) into the remaining tubes. To each diluted sample was added 0.050 mL of Hfr 3000 bacteria cultured overnight and 3 mL of molten LB top agar and the mixed materials were poured onto LB broth plates. After the top agar hardened, the plates were incubated at 37° C. overnight. The plaque forming units were then counted the following morning and the titer of the phage remaining after phototreatment was calculated based on the dilution factors.
The following controls were run: the “phage only” in which phage was not treated with test compound and not irradiated (listed as “starting titer” in the tables below); the “UV only” in which the phage was irradiated in the absence of test compound; and the “dark” control in which the phage/test compound solution was not irradiated before it was diluted and plated.
Compounds of the present invention were also tested at a constant concentration for varying doses of UV light. Three sets of 1.5 mL tubes were prepared containing 0.6 mL aliquots of R17 in DMEM (prepared as described above). The compound tested was added at the desired concentration and the samples were vortexed. The samples were then irradiated at intervals of 1.0 J/cm^2, until 3.0 J/cm^2 was reached. Between each 1.0 J/cm^2 interval, 100 μL was removed from each sample and placed in the first corresponding dilution tube, then five sequential dilutions were performed for each compound tested, at all 3 irradiation doses, as described above in this example.
Then 50 μL of Hfr 3000 bacteria was added to each tube, 3 mL of top agar was added and the tube contents were vortexed. The contents of each tube was poured into its own LB plate and the plates were incubated overnight at 37° C. Plaques were counted by visual inspection the following morning.

[4] = tested on: Salmonella tester strains TA97a, TA98, TA100, TA102, TA1537 and TA1538; assay: Ames assay, overall assessment over the tester strains; settings: strains tested: TA100 and TA1538, ±S9, 5 and 10 μg/plate
From the text: as §1, §2, §3
For all experiments, the pre-incubation procedure was used. In this procedure one vial of each tester strain was thawed and 20 μL of this culture was added to 6 mL of Oxoid Nutrient Broth #2. This solution was allowed to shake for 10 hours at 37° C. In the pre-incubation procedure, 0.1 mL of this overnight culture was added to each of the required number of sterile test tubes. To half of the tubes 0.5 mL of a 10% S-9 solution containing Aroclor 1254 induced rat liver extract (Molecular Toxicology Inc., Annapolis, Md.), and MgCl2, KCl, glucose-6-phosphate, NADP, and sodium phosphate buffer (Sigma, St. Louis, Mo.) were added. To the other half of the tubes 0.5 mL of 0.2M sodium phospate buffer, pH 7.4, was used in place of the S-9 mixture (the -S9 samples). Finally 0.1 mL of the test solution containing either 0, 0.1, 0.5, 1, 5, 10, 50, 100, 250, or 500 μg/mL of the test compound was added. […] After incubation the number of revertant colonies on each plate were counted. […]

[5] = tested on: Salmonella typhimurium TA102; assay: Ames assay (dark mutagenicity), strain TA102; settings: TA102 at 500 μg/plate
From the text: as §1, §2, §3, §4, §5

[6] = tested on: Duck Hepatitis B Virus (DHBV); assay: Inactivation of DHBV in platelet concentrate, PCR amplification readout; settings: 5J/CM^2 UVA
Method: This example describes the protocol for inactivation of Duck Hepatitis B Virus (DHBV), a model for Hepatitis B Virus, using compounds of the present invention. DHBV in duck yolk was added to platelet concentrate (PC) to a final concentration of 2×10^7 particles per mL and mixed by gentle rocking for ≧15 min. […] Samples, including controls without added psoralen, were irradiated with 5J/CM^2 UVA, with mixing at 1 J/cm^2 increments. After irradiation, leukocytes and platelets were separated from virus by centrifugation. […] Samples were extracted with phenol-chloroform and chloroform, followed by ethanol precipitation. […] PCR amplicons were generated using primers pairs DCD03/DCD05 (127 bp), DCD03/DCD06 (327 bp) and DCD03/DCD07 (1072 bp). PCR was performed in a standard PCR buffer containing 0.2 mM each deoxyribonucleoside 5′-triphosphates (dATP, dGTP, dCTP, and dTTP), […], and 0.5 units Taq polymerase per […]. 30 cycles of amplification were performed with the following thermal profile: 95° C. 30 sec, 60° C. 30 sec, 72° C. 1 min. The amplification was followed by a 7 min incubation at 72° C. to yield full length products. […] was added at an amount of […] in order to detect and quantify the resulting products. Products were separated by electrophoresis on denaturing polyacrylamide slab gels and counted. The absence of signal in a given reaction was taken to indicate effective inactivation of DHBV.

**Q.** Which “genotoxic (toxic) concentration” value [1] does the source give for Cc1oc2c(CN)c3oc(=O)cc(C)c3cc2c1C [8-aminomethyl-4,4′, 5′-trimethylpsoralen, reference compound] here?
**A.** The value was 10 µg/mL.

**Q.** Cc1oc2c(C)c3oc(=O)cc(C)c3cc2c1CNCCN [Compound 1, 4′-(4-amino-2-aza)butyl-4,5′,8-trimethylpsoralen] was tested. Which mutagenic response detected ([2]; TA1538 at 5 μg/plate in the presence of S9) did it give?
**A.** The mutagenic response detected was “weak frameshift mutagen”.

**Q.** What about the revertants per plate ([2]; TA1538 −S9, 5 μg/plate) of the same compound?
**A.** Its revertants per plate is 10.

**Q.** What about the revertants per plate ([2]; TA1538 −S9, 10 μg/plate) of the same compound?
**A.** The revertants per plate was 12.

**Q.** And the revertants per plate ([3]; TA100 +S9, 5 μg/plate)?
**A.** The revertants per plate was −24.

**Q.** What about the revertants per plate ([3]; TA100 +S9, 10 μg/plate) of the same compound?
**A.** Its revertants per plate is −22.

**Q.** And the “mutation in the TA100 strain” value ([3]; TA100, with and without S9)?
**A.** Its value is “displayed mutation in the TA100 strain, but only in the absence of S9”.

**Q.** What about the “R17 inactivation efficiency compared with 8-MOP” value (R17; 32 μM, 1 minute irradiation) of the same compound?
**A.** Its value is “much higher R17 inactivation efficiency than does 8-MOP”.

**Q.** What about the “LOG TITER” value (R17; experiment 1, 32 μM cmpd, 1′ uva, phage only titer 7.7) of the same compound?
**A.** Its value is less than 1 log.

**Q.** And the “LOG TITER” value (R17; experiment 1, 32 μM cmpd, 10′ uva, phage only titer 7.7)?
**A.** Its value is less than 1 log.

**Q.** And the “LOG TITER” value (R17; experiment 1, compound only (32 μM), no uva, phage only titer 7.7)?
**A.** Its value is 7.6 log.

**Q.** What about the “LOG TITER” value (R17; experiment 2, 3.2 μM cmpd, 1′ uva, phage only titer 7.8) of the same compound?
**A.** Its value is 6.9 log.

**Q.** And the “LOG TITER” value (R17; experiment 2, 3.2 μM cmpd, 10′ uva, phage only titer 7.8)?
**A.** The value was 6.1 log.

**Q.** And the “LOG TITER” value (R17; experiment 2, compound only (3.2 μM), no uva, phage only titer 7.8)?
**A.** Its value is 7.7 log.

**Q.** What about the “LOG TITER” value (R17; experiment 3, 4 μM cmpd, 1′ uva, phage only titer 7.3) of the same compound?
**A.** The value was 6.3 log.

**Q.** What about the “LOG TITER” value (R17; experiment 3, 8 μM cmpd, 1′ uva, phage only titer 7.3) of the same compound?
**A.** The value was 5.6 log.

**Q.** And the “LOG TITER” value (R17; experiment 3, 16 μM cmpd, 1′ uva, phage only titer 7.3)?
**A.** Its value is 3.9 log.

**Q.** What about the “LOG TITER” value (R17; experiment 3, compound only (16 μM), no uva, phage only titer 7.3) of the same compound?
**A.** Its value is 7.3 log.

**Q.** How did the revertants per plate ([2]; TA1538 −S9, 5 μg/plate) turn out when Cc1oc2c(C)c3oc(=O)cc(C)c3cc2c1COCCCN [Compound 4, 4′-(5-amino-2-oxa)pentyl-4,5′,8-trimethylpsoralen] was run?
**A.** The revertants per plate was −2.

**Q.** What about the revertants per plate ([2]; TA1538 −S9, 10 μg/plate) of the same compound?
**A.** The revertants per plate was −2.

**Q.** And the “mutagenicity (overall)” value [4]?
**A.** Its value is “no mutagenicity”.

**Q.** What about the revertants per plate ([3]; TA100 +S9, 5 μg/plate) of the same compound?
**A.** The revertants per plate was −10.

**Q.** What about the revertants per plate ([3]; TA100 +S9, 10 μg/plate) of the same compound?
**A.** Its revertants per plate is −3.

**Q.** Which mutagenic response detected [5] does the source give for COc1c2occc2cc2ccc(=O)oc12 [Compound 8-MOP, 8-Methoxypsoralen] here?
**A.** The mutagenic response detected was “weak base-substitution mutagen”.

**Q.** Which results are given for Cc1oc2c(C)c3oc(=O)cc(C)c3cc2c1COCCN [Compound S-59]?
**A.** PCR amplification of the 1072 bp DHBV amplicon ([6]; all concentrations (35, 70, and 100 mM)): complete inhibition of PCR; inhibition of PCR of the smaller DHBV amplicons (127 bp, 327 bp) compared with AMT ([6]; same concentrations): inhibited PCR of the smaller amplicons better than did AMT
